Experimental findings from patent publication US8017588B2, “Clarithromycin or salt thereof for use in the treatment or prevention of pulmonary disease induced by destruction of pulmonary alveoli” (Taisho Pharmaceutical Co., Ltd, priority 2005, dated 2011) are described below.

Molecules are shown by their SMILES.

The test system of data set [1] is macrophages and neutrophiles in bronchoalveolar lavage fluids. Put plainly: Cell counts of inflammatory cells in bronchoalveolar lavage fluids of model mice with tobacco smoke-induced pulmonary emphysema. It counts as in vivo, C57black/6 female mice. As to conditions: after six months' exposure, 25, 50 or 100 mg/kg orally twice daily. The method, then: The model mice with tobacco smoke-induced pulmonary emphysema mimicking human pulmonary emphysema were constructed according to the method as described in Hautamaki, R. D. et al., Science 1997, 277:2002-2004 or Shapiro, S. D. et al., Am. J. Pathol (2003) 163:2329-2335. Specifically, C57black/6 female mice of 12-weeks old were exposed to tobacco smoke at two cigarettes per day, 6 days per week for 6 months. Administration of clarithromycin was carried out orally at the rate of 25, 50 or 100 […] twice daily (morning and evening) during the tobacco smoke exposure period. The plasma AUC0-∞ of clarithromycin obtained when 50 mg/kg was singly administered to the mice was 2.677 μg·hr/ml while the plasma AUC0-∞ of clarithromycin obtained when 200 mg of clarithromycin was singly administered to a normal human subject was 8.98 μg·hr/ml. The former concentration was substantially lower than the latter one and was an adequate concentration to be used clinically. The cell counts of inflammatory cells (macrophages and neutrophiles) in the bronchoalveolar lavage fluids after six months' exposure were measured to provide an index of the inflammatory condition in the model mice with tobacco smoke-induced pulmonary emphysema. […]

Data set [2] concerns model mice with tobacco smoke-induced pulmonary emphysema. Put plainly: Pulmonary compliance in model mice with tobacco smoke-induced pulmonary emphysema. It counts as in vivo, C57black/6 female mice. Particulars: after six months' exposure; FIG. 2. As for the experimental part: The model mice with tobacco smoke-induced pulmonary emphysema mimicking human pulmonary emphysema were constructed according to the method as described in Hautamaki, R. D. et al., Science 1997, 277:2002-2004 or Shapiro, S. D. et al., Am. J. Pathol (2003) 163:2329-2335. Specifically, C57black/6 female mice of 12-weeks old were exposed to tobacco smoke at two cigarettes per day, 6 days per week for 6 months. Administration of clarithromycin was carried out orally at the rate of 25, 50 or 100 […] twice daily (morning and evening) during the tobacco smoke exposure period. The plasma AUC0-∞ of clarithromycin obtained when 50 mg/kg was singly administered to the mice was 2.677 μg·hr/ml while the plasma AUC0-∞ of clarithromycin obtained when 200 mg of clarithromycin was singly administered to a normal human subject was 8.98 μg·hr/ml. The former concentration was substantially lower than the latter one and was an adequate concentration to be used clinically. It has been reported that as pulmonary emphysema progresses, pulmonary functions deteriorate. It has also been known that the pulmonary compliance, which is an index of pulmonary functions, increases in model mice with tobacco smoke-induced pulmonary emphysema. Thus, the pulmonary compliance was measured in the model mice with tobacco smoke-induced pulmonary emphysema after six months' exposure.

The nature of data set [3]: Plasma AUC after single administration to a normal human subject. It is filed as in vivo. Particulars: 200 mg singly administered, read-out: plasma AUC0-∞. As for the experimental part: (§1) Administration of clarithromycin was carried out orally at the rate of 25, 50 or 100 […] twice daily (morning and evening) during the tobacco smoke exposure period. The plasma AUC0-∞ of clarithromycin obtained when 50 mg/kg was singly administered to the mice was 2.677 μg·hr/ml while the plasma AUC0-∞ of clarithromycin obtained when 200 mg of clarithromycin was singly administered to a normal human subject was 8.98 μg·hr/ml. The former concentration was substantially lower than the latter one and was an adequate concentration to be used clinically.

Data set [4] can be described thus: Plasma AUC after single administration to mice. As to conditions: C57black/6, mouse, oral, 50 mg/kg singly administered, read-out: plasma AUC0-∞. It is filed as in vivo. As for the experimental part: as §1

Regarding `CC[C@H]1OC(=O)[C@H](C)[C@@H](O[C@H]2C[C@@](C)(OC)[C@@H](O)[C@H](C)O2)[C@H](C)[C@@H](O[C@@H]2O[C@H](C)C[C@H](N(C)C)[C@H]2O)[C@](C)(OC)C[C@@H](C)C(=O)[C@H](C)[C@@H](O)[C@]1(C)O` [clarithromycin], the “cell count of macrophages in bronchoalveolar lavage fluid” value in data set [1] (FIG. 1A) was “reduced the cell counts of macrophages and neutrophiles in a dose-dependant manner”. Also, the “cell count of neutrophiles in bronchoalveolar lavage fluid” value in data set [1] (FIG. 1B) is “reduced the cell counts of macrophages and neutrophiles in a dose-dependant manner”. In addition, the pulmonary compliance result in data set [2] was “the pulmonary compliance recovered”. Further, the values for the AUC(0-inf) in data set [3] and in data set [4] were 8980 ng·h/mL and 2680 ng·h/mL, respectively.
